Results published in PMC5573830 (The Journal of Veterinary Medical Science, 2017).

Target: rTgAPN2 (recombinant aminopeptidase N2, TgAPN2) (Toxoplasma gondii, UniProt A0A7J6K0L4)
Test: residual H-Ala-MCA hydrolysis, fluorescence
Format: biochemical
Conditions: 30 min pre-incubation at 37 °C, substrate H-Ala-MCA

CC(C)C[C@H](NC(=O)[C@@H](O)[C@H](N)Cc1ccccc1)C(=O)O [bestatin]
residual enzyme activity (%): The activity of rTgAPN2 was reduced in a dose-dependent manner in the presence of bestatin or amastatin
